Data reported in US11465980B2, “6-membered aza-heterocyclic containing delta-opioid receptor modulating compounds, methods of using and making the same” (Trevena, Inc., priority 2015, dated 2022).

Legend:
adult male C57 mice = experiment: Tail suspension test (TST); format: in vivo, mouse; settings: route sc, po; p < 0.05 compared to vehicle-treated mice
Experimental: The experiments were performed using adult male C57 mice (6-10 weeks of age, 20-30 g, Hilltop Lab, PA). The mice were housed in standard rodent cages with stainless steel mesh wire bar lids in groups of 4 with controlled temperature and light cycle (6:00 a.m.-6:00 p.m.). Animals were given free access to food (Harlan Teklad Global 18% protein (Madison, Wis.)) and water during a minimum 2-day habituation period to the laboratory. Animals that were used in the study were handled, housed, and sacrificed (using compressed CO2) in accord with the current NIH guidelines regarding the use and care of laboratory animals, and all applicable local, state, and federal regulations and guidelines. Animals are identified by cage number, and by markings applied to the proximal tip of the tail using a permanent marker. Group sizes (n=8, and therefore 30-50 animals per study) provide reliable estimates of treatment effects, and this species and strain of mouse has been recognized as appropriate for pharmacology studies.
To measure efficacy of the compounds the compounds were tested using a tail suspension test. The tail suspension test is a behavioral test used to evaluate the efficacy of antidepressant drugs in rodents. In the TST, mice (n=8/group) were suspended by the tail with tape approximately 30-50 cm above the lab bench. Mice are positioned such that the base of their tail is perpendicular to the lab bench. Each mouse is given 1 trial that last 6 minutes. The total duration of immobility is calculated as the percentage of time that the mouse is immobile. The duration of immobility is the main parameter measured. This is calculated from the cumulated time during which the animals is absent of initiated movements including passive swaying. When antidepressant drugs are administered, immobility is decreased by a variety of classes of antidepressant drugs. One or more of the compounds show antidepressant activity.

mouse = experiment: Tactile allodynia produced by intraplantar Freund's Complete Adjuvant, von Frey (mouse); format: in vivo; settings: route sc, p < 0.05 vs vehicle
Experimental: (§1) Animals were acclimated to the vivarium for at least 48 hr prior to behavioral testing. Inflammation was induced for both rodent species with the administration of an intraplantar (subcutaneous injection into the plantar surface of the hind paw, i.pl.) injection of 0.10 ml Freund's Complete Adjuvant (FCA).
For mouse studies, the experiments were conducted 48 hours after FCA administration. Tactile allodynia was measured using a series of von Frey monofilaments. These filaments are bendable, plastic and intended to poke, not penetrate, the skin. Animals were placed in a Plexiglas chamber (approximately 10 cm×20 cm×25 cm) and allowed to habituate for 5-10 minutes. The chamber was positioned on top of a mesh screen so that von Frey monofilaments can be presented to the plantar surface of the hind paw that is inflamed. The measurement of tactile sensitivity for the injected hind paw is obtained using the up/down method (LaBuda and Little, 2005, J Neurosci. Methods, 144, 175) with […]. Each trial will start with a von Frey force of 0.6 grams delivered to the hind paw for approximately 1-2 seconds. If there was no withdrawal response, the next higher force was be delivered. If there was a response, the next lower force was delivered. This procedure was performed until no response was made at the highest force (2 grams) or until four stimuli are administered following the initial response. The 50% paw withdrawal threshold for the hind paw was be calculated using the following formula: [Xth]log=[vFi]log+ky where [vFr] is the force of the last von Frey used, k is the average interval (in log units) between the von Frey monofilaments, and y is a value that depends upon the pattern of withdrawal responses (Dixon, Annual Review Pharmacol Toxicol, 1980, 20, 441).

rat [1] = experiment: Mechanical allodynia after Freund's Complete Adjuvant, Randall-Selitto (rat); format: in vivo; settings: route sc, p < 0.05 vs vehicle
Experimental: as §1
For rat studies, the experiments were conducted 24 hours after CFA administration. Rats are tested for mechanical allodynia in a Randall-Selitto apparatus. The inflamed paw is put on a pedestal and a pointed force of increasing intensity (0 to 250 grams) is applied to the paw. When the animal struggles to withdraw from the force the test is stopped and the force to induce that struggle is recorded. Data may be presented as mean grams of force to withdrawal or a percentage of the maximum possible effect.

rat [2] = experiment: Tactile allodynia produced by nitroglycerin (migraine model, rat); format: in vivo; settings: route sc, po, nitroglycerin 10 mg/kg ip, p < 0.05 vs vehicle
rat [3] = experiment: Hemilesioned rat 6-OHDA model (bar, drag, rotarod tests); format: in vivo; settings: route sc, p < 0.05 vs vehicle
Experimental: Compounds were tested for efficacy in reversing akinesia and bradykinesia in two well accepted rodent Parkinson's disease (PD) models; the haloperidol-induced rat catalepsy and 6-OHDA rat hemiparkinson lesion models.
In the hemilesioned rat 6-OHDA model, the effect of compound on the akinetic response to lesioning of the contralateral forepaw in the bar test and stepping activity as measured by the drag test were determined. […] This assay examines efficacy for reversing PD motor symptoms (i.e. akinesia/bradykinesia and gait abilities). The behavioral readouts will include immobility time in the bar test (akinesia), number of steps in the drag test (akinesia/bradykinesia) and time spent on rod in the rotarod test (overall gait ability, gross motor behavior). Compounds were administered subcutaneously and efficacy was evaluated between 30 and 90 min post dose.

male c57bl6J mice [4] = experiment: Reversal of opioid-induced hyperalgesia (morphine); format: in vivo, mouse; settings: 10 mg/kg s.c., 30 min prior to testing; morphine twice daily for 4 days; FIG. 4
Experimental: Next it was determined that B1049 could reverse opioid-induced hyperalgesia. Mice (44 male c57bl6J mice, n=8-9/group) were habituated for 2 days on testing rack prior to injections. Mice were treated with vehicle (VEH-VEH (saline), VEH-B1049 (10% BCD-saline)) or morphine (MORPH) (20 mg/kg, s.c. days 1-3, 40 mg/kg s.c. day 4) twice daily (9 a.m. and 5 p.m.) for 4 days. Mechanical sensitivity was measured as the 50% withdrawal threshold to manual von Frey hair stimulation on day 5. Baseline measurement were taken 16 hours after final MORPH/VEH injection and 3 h later, post-drug measurements were taken after dosing with B1049 (10 mg/kg, s.c., 30 min prior to testing) or SNC80 (10 mg/kg, i.p., 45 min prior to testing). (***p<0.001 compared to post-drug SUMA-VEH). The results are illustrated in FIG. 4.

male c57bl6J mice [5] = experiment: Tactile allodynia produced by repeat dosing of test drug (induction of medication overuse headache); format: in vivo, mouse; settings: daily for 11 days; B1049 10 mg/kg s.c., sumatriptan 0.6 mg/kg i.p.; FIG. 5
Experimental: Mice (25 male c57bl6J mice, n=4-5/group) were habituated for 2 days on testing rack prior to injections. Mice were treated with vehicle (VEH-VEH (saline), VEH-B1049 (10% BCD-saline)), sumatriptan (SUMA) (0.6 mg/kg, i.p.), SNC80 (10 mg/kg, i.p.), or B1049 (10 mg/kg, s.c.) daily for 11 days. Mechanical sensitivity was measured as the 50% withdrawal threshold to manual von Frey hair stimulation on days 1 and 11. On these days, mice were habituated to the rack for 15-20 min, following which baseline mechanical thresholds were determined prior to administration of drug or control. On day 1 following assessment of baseline mechanical threshold, mice were weighed and injected with drug or control and returned to home cage. The results are illustrated in FIG. 5.

## COCCOc1cccc([C@@H]2CCN(CCn3cccc3)[C@H](C)[C@H]2COc2ccc3c(c2)C(=O)NC3)c1 (relative stereo) [Compound B1049, (−)-6-{[(trans, trans)-4-[3-(2-methoxyethoxy)phenyl]-2-methyl-1-[2-(1H-pyrrol-1-yl)ethyl]piperidin-3-yl]methoxy}-2,3-dihydro-1H-isoindol-1-one]
Adult male C57 mice
  Active TST Dose: ≤30 mg/kg
mouse
  Active CFA Dose: ≤10 mg/kg
Rat [1]
  Active CFA Dose: ≤10 mg/kg
Rat [2]
  Active Migraine Doses: ≤30 mg/kg
Rat [3]
  Active Dose (hemilesioned rat 6-OHDA model): ≤30 mg/kg
Male c57bl6J mice [4]
  reversal of opioid induced hyperalgesia: able to reverse opioid induced hyperalgesia
Male c57bl6J mice [5]
  induction of medication overuse headache (tactile allodynia after repeat dosing): does not induce medication overuse headache
